Assay results taken from patent publication US20230416765A1, “AGROBACTERIUM RHIZOGENES AND METHODS OF TRANSFORMING CELLS” (priority 2020, published 2023).

System: MSU440
Assay: Antibiotic susceptibility test on MSU440
Assay type: cell-based, Agrobacterium rhizogenes
Text: The development of a disarmed strain of MSU440 relied on a selectable marker (an antibiotic resistance gene or the counter-selectable marker sacB). Antibiotic susceptibility test on MSU440 were formed with the antibiotics outlined in Table 5.

[1] = MSU440 response to antibiotic at 50 ug/mL

CC1(C)S[C@@H]2[C@H](NC(=O)C(C(=O)O)c3ccccc3)C(=O)N2[C@H]1C(=O)O (some centres unmarked) [carbenicillin]
Resistant or susceptible (MSU440 response to antibiotic at 100 ug/mL): susceptible

O=C(N[C@H](CO)[C@H](O)c1ccc([N+](=O)[O-])cc1)C(Cl)Cl [chloramphenicol]
Resistant or susceptible (MSU440 response to antibiotic at 30 ug/mL): resistant

CN[C@@H]1[C@H](O)[C@H](NC)[C@H]2O[C@@]3(O)C(=O)C[C@@H](C)O[C@H]3O[C@@H]2[C@H]1O [spectinomycin]
Resistant or susceptible [1]: resistant

[H]/N=C(/N)N[C@H]1[C@H](O)[C@@H](O)[C@H](O[C@@H]2O[C@@H](C)[C@](O)(C=O)[C@H]2O[C@@H]2O[C@@H](CO)[C@H](O)[C@@H](O)[C@@H]2NC)[C@@H](N/C(N)=N\[H])[C@@H]1O [streptomycin]
Resistant or susceptible [1]: resistant

gentamicin
Resistant or susceptible (MSU440 response to antibiotic at 35 ug/mL): susceptible
